Source: PMC11775185, “Structure and function of a near fully-activated intermediate GPCR-Gαβγ complex” (Nature Communications, 2025)

What was measured:
Experiment in all cases: GTPase-Glo luminescence, Lineweaver-Burk
[1] = system: T1, WT*-mediated Gαsβγ (A2AR-Gαsβγ complex); type: biochemical, Homo sapiens; conditions: agonist-activated WT* receptor (S5), with cognate GAP, pH […], room temperature
T1 construct: gene GNAS; cited protocols may use bovine/rat subunits), with purified A2AR_316 V229C in LMNG/CHS; Adenosine receptor A2a
Description: GTPase-Glo luminescence, Lineweaver-Burk on WT*-mediated Gαsβγ (A2AR-Gαsβγ complex) | and the S5 mediated Gαsβγ (positive control)

[2] = system: T2, Gαsβγ alone; type: biochemical; conditions: […] Gαsβγ without receptor, with cognate GAP, pH […], room temperature
T2 construct: gene GNAS; full-length Gαsβγ heterotrimer without receptor
Description: GTPase-Glo luminescence, Lineweaver-Burk on Gαsβγ alone | Km values for S4 mediated Gαsβγ, in reference to Gαsβγ alone (negative control)

[3] = system: T3, Gαsβγ (A2AR-Gαsβγ complex); type: biochemical, Homo sapiens; conditions: R291A receptor (S4), with cognate GAP, pH […], room temperature
T3 construct: gene GNAS; cited protocols may use bovine/rat subunits), with purified A2AR_316 V229C in LMNG/CHS; Adenosine receptor A2a
Description: GTPase-Glo luminescence, Lineweaver-Burk on WT*-mediated Gαsβγ (A2AR-Gαsβγ complex) | we measured the initial rates and Michaelis constants of GTP hydrolysis

`Nc1nc2c(ncn2[C@@H]2O[C@H](COP(=O)(O)OP(=O)(O)OP(=O)(O)O)[C@@H](O)[C@H]2O)c(=O)[nH]1` [GTP] was tested. Which Km [1] did it give?
The Km was 32.1 ± 1 µM.

And the Km [2]?
The Km was 8.3 ± 0.61 µM.

What about the Km [3] of the same molecule?
The Km was 18 ± 1.87 µM.
